Data taken from publication PMC9683047, “Design, synthesis and biological evaluation of 4-aminoquinoline derivatives as receptor-interacting protein kinase 2 (RIPK2) inhibitors” (Journal of Enzyme Inhibition and Medicinal Chemistry, 2022).

Tests used:
[1] = target: T1, RIPK2 (Homo sapiens, UniProt O43353); experiment: RIPK2 kinase inhibition assay (ADP-Glo); assay type: biochemical; settings: mean ± SD from two separate experiments
T1 construct: purchased Promega
Experimental: RIPK2 kinase activity was analysed using the ADP-Glo™ Assay Kit (RIPK2 Kinase Enzyme System, Promega, USA). Reactions were performed according to the instructions. Specific signal was calculated by subtracting values in the wells without protein and inhibitor from the values in the test wells.

[2] = target: T1, RIPK2; experiment: Lipophilic ligand efficiency (LipE); settings: LipE = pIC50 − ClogP
[3] = target: T2, RIPK1 (Homo sapiens, UniProt Q13546); experiment: RIPK1 inhibition rate at 1 µM; assay type: biochemical
T2 sequence (Q13546 1-671): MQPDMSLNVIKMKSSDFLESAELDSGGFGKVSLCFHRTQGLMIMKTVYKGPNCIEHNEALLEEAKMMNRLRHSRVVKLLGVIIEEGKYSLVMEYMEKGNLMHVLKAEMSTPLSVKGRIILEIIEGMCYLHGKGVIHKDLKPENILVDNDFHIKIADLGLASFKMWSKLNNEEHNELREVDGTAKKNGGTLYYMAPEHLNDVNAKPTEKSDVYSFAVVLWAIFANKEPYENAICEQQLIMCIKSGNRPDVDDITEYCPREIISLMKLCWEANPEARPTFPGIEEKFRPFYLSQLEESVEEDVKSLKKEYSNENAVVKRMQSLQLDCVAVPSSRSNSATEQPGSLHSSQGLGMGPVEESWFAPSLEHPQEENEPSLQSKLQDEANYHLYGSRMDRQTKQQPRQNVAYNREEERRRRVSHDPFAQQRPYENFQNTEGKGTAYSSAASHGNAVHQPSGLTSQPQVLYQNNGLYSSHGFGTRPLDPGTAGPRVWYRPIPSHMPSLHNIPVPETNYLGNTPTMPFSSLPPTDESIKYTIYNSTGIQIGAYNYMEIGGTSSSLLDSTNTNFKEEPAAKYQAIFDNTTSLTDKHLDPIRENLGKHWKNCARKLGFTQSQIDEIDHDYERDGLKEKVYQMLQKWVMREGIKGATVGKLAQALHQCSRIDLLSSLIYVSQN
Experimental: Table 4. Selectivity, ClogP and LipE of compound 14, 15, 21, 32, 36. | column: RIPK1 IR@1µM (%)

T1 sequence (O43353 whole entry): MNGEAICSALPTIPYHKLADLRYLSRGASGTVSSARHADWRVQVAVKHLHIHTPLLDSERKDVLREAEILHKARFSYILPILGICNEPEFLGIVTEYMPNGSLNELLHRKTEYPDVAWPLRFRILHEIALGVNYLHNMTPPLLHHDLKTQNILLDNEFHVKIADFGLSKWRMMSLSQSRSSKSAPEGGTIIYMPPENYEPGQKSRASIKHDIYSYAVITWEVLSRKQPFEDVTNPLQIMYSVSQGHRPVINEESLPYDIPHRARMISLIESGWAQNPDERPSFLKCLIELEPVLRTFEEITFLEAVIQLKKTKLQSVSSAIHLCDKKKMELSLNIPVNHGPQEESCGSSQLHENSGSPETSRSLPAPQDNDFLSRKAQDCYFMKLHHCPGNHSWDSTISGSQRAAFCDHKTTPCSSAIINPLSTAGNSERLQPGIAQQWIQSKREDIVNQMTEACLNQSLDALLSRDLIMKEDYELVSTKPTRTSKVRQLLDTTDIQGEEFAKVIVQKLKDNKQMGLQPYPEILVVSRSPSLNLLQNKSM

SMILES	IC50 [1]	LipE [2]	RIPK2 IC50 [1]	RIPK1 IR@1µM (%) [3]
Brc1ccc2nccc(Nc3ccccc3)c2c1 [Compound 1, 6-Bromo-N-phenylquinolin-4-amine]	243 ± 14.8 nM	2.57		
COc1cccc(Nc2ccnc3ccc(Br)cc23)c1 [Compound 2, 6-Bromo-N-(3-methoxyphenyl)quinolin-4-amine]	54.8 ± 3.4 nM	3.10		
CC(C)Oc1cccc(Nc2ccnc3ccc(Br)cc23)c1 [Compound 3, 6-Bromo-N-(3-isopropoxyphenyl)quinolin-4-amine]	> 1000 nM		loss of the activity	
CC(=O)c1cccc(Nc2ccnc3ccc(Br)cc23)c1 [Compound 4, 1–(3-((6-Bromoquinolin-4-yl)amino)phenyl)ethan-1-one]	92.5 ± 22.1 nM	3.50		
Fc1cc(Nc2ccnc3ccc(Br)cc23)ccc1Cl [Compound 5, 6-Bromo-N-(4-chloro-3-fluorophenyl)quinolin-4-amine]	31.4 ± 6.2 nM	2.78		
COc1cc(Nc2ccnc3ccc(Br)cc23)cc(OC)c1OC [Compound 6, 6-Bromo-N-(3,4,5-trimethoxyphenyl)quinolin-4-amine]	10.7 ± 0.1 nM	3.63		
Brc1ccc2nccc(Nc3ccccn3)c2c1 [Compound 7, 6-Bromo-N-(pyridin-2-yl)quinolin-4-amine]	> 1000 nM			
Brc1ccc2nccc(Nc3cccnc3)c2c1 [Compound 8, 6-Bromo-N-(pyridin-3-yl)quinolin-4-amine]	151 ± 30.1 nM	3.68		
Brc1ccc2nccc(Nc3ccncc3)c2c1 [Compound 9, 6-Bromo-N-(pyridin-4-yl)quinolin-4-amine]	421 ± 106 nM	3.24		
Brc1ccc2nccc(Nc3ccc4scnc4c3)c2c1 [Compound 10, N-(6-bromoquinolin-4-yl)benzo[d]thiazol-5-amine]	12.2 ± 2.5 nM	3.97		
Brc1ccc2nccc(Nc3ccc4ncsc4c3)c2c1 [Compound 11, N-(6-bromoquinolin-4-yl)benzo[d]thiazol-6-amine]	82.3 ± 12.2 nM	3.21		
Brc1ccc2nccc(Nc3ccc4cn[nH]c4c3)c2c1 [Compound 12, 6-Bromo-N-(1H-indazol-6-yl)quinolin-4-amine]	22.2 ± 5.2 nM	3.49		
Brc1ccc2nccc(Nc3ccc4[nH]ccc4c3)c2c1 [Compound 13, 6-Bromo-N-(1H-indol-5-yl)quinolin-4-amine]	118 ± 21.5 nM	2.82		
c1ccc(-c2ccc3nccc(Nc4ccc5scnc5c4)c3c2)nc1 [Compound 16, N-(6-(pyridin-2-yl)quinolin-4-yl)benzo[d]thiazol-5-amine]	3.6 ± 1.4 nM	4.11		
c1ncc(-c2ccc3nccc(Nc4ccc5scnc5c4)c3c2)cn1 [Compound 17, N-(6-(pyrimidin-5-yl)quinolin-4-yl)benzo[d]thiazol-5-amine]	1.5 ± 0.3 nM	2.80		
c1ccc(-c2ccc3nccc(Nc4ccc5scnc5c4)c3c2)cc1 [Compound 18, N-(6-phenylquinolin-4-yl)benzo[d]thiazol-5-amine]	24 ± 11.6 nM	5.81		
Cn1cc(-c2ccc3nccc(Nc4ccc5scnc5c4)c3c2)cn1 [Compound 19, N-(6–(1-methyl-1H-pyrazol-4-yl)quinolin-4-yl)benzo[d]thiazol-5-amine]	16.4 ± 1.6 nM	3.08		
c1cc(Nc2ccc3scnc3c2)c2cc(-c3cn[nH]c3)ccc2n1 [Compound 20, N-(6-(1H-pyrazol-4-yl)quinolin-4-yl)benzo[d]thiazol-5-amine]	8.2 ± 1.6 nM	3.04		

SMILES	IC50 [1]	LipE [2]	RIPK2 IC50 [1]	RIPK1 IR@1µM (%) [3]
Cc1n[nH]cc1-c1ccc2nccc(Nc3ccc4scnc4c3)c2c1 [Compound 21, N-(6–(3-methyl-1H-pyrazol-4-yl)quinolin-4-yl)benzo[d]thiazol-5-amine]	4.1 ± 0.9 nM	4.99		<1%
Cc1cnn(C)c1-c1ccc2nccc(Nc3ccc4scnc4c3)c2c1 [Compound 22, N-(6–(1,4-dimethyl-1H-pyrazol-5-yl)quinolin-4-yl)benzo[d]thiazol-5-amine]	19 ± 6.7 nM	3.86		
Cc1nn(C)cc1-c1ccc2nccc(Nc3ccc4scnc4c3)c2c1 [Compound 23, N-(6–(1,3-dimethyl-1H-pyrazol-4-yl)quinolin-4-yl)benzo[d]thiazol-5-amine]	9.5 ± 3.7 nM	2.92		
Cc1cscc1-c1ccc2nccc(Nc3ccc4scnc4c3)c2c1 [Compound 24, N-(6–(4-methylthiophen-3-yl)quinolin-4-yl)benzo[d]thiazol-5-amine]	19.6 ± 12 nM	2.37		
c1cc(Nc2ccc3scnc3c2)c2cc(-c3ccc4[nH]ccc4c3)ccc2n1 [Compound 25, N-(6-(1H-indol-5-yl)quinolin-4-yl)benzo[d]thiazol-5-amine]	11.1 ± 3.6 nM	3.87		
c1cc(-c2ccc3nccc(Nc4ccc5scnc5c4)c3c2)c2cc[nH]c2c1 [Compound 26, N-(6-(1H-indol-4-yl)quinolin-4-yl)benzo[d]thiazol-5-amine]	9.4 ± 1.1 nM	5.00		
c1cc(-c2ccc3nccc(Nc4ccc5scnc5c4)c3c2)c2cn[nH]c2c1 [Compound 27, N-(6-(1H-indazol-4-yl)quinolin-4-yl)benzo[d]thiazol-5-amine]	3.7 ± 0.4 nM			
c1cc(Nc2ccc3scnc3c2)c2cc(-c3ccnc4[nH]ccc34)ccc2n1 [Compound 28, N-(6-(1H-pyrrolo[2,3-b]pyridin-4-yl)quinolin-4-yl)benzo[d]thiazol-5-amine]	7.3 ± 3.5 nM	3.46		
c1ccc2c(-c3ccc4nccc(Nc5ccc6scnc6c5)c4c3)cncc2c1 [Compound 29, N-(6-(isoquinolin-4-yl)quinolin-4-yl)benzo[d]thiazol-5-amine]	17.2 ± 2.3 nM	3.81		
c1ccc2ncc(-c3ccc4nccc(Nc5ccc6scnc6c5)c4c3)cc2c1 [Compound 30, N-([3,6'-biquinolin]-4'-yl)benzo[d]thiazol-5-amine]	41.7 ± 19 nM	2.80		
COc1cc(Nc2ccnc3ccc(-c4ccncc4)cc23)cc(OC)c1OC [Compound 31, 6-(Pyridin-4-yl)-N-(3,4,5-trimethoxyphenyl)quinolin-4-amine]	8.1 ± 3.9 nM	3.87		
COc1cc(Nc2ccnc3ccc(-c4cccnc4)cc23)cc(OC)c1OC [Compound 32, 6-(Pyridin-3-yl)-N-(3,4,5-trimethoxyphenyl)quinolin-4-amine]	2.4 ± 0.2 nM	4.30		19%
COc1cc(Nc2ccnc3ccc(-c4ccccn4)cc23)cc(OC)c1OC [Compound 33, 6-(Pyridin-2-yl)-N-(3,4,5-trimethoxyphenyl)quinolin-4-amine]	12.4 ± 8.9 nM	3.26		
COc1cc(Nc2ccnc3ccc(-c4cncnc4)cc23)cc(OC)c1OC [Compound 34, 6-(Pyrimidin-5-yl)-N-(3,4,5-trimethoxyphenyl)quinolin-4-amine]	11 ± 1.7 nM	4.58		
COc1cc(Nc2ccnc3ccc(-c4cccc5[nH]ncc45)cc23)cc(OC)c1OC [Compound 35, 6–(1 h-indazol-4-yl)-N-(3,4,5-trimethoxyphenyl)quinolin-4-amine]	7.1 ± 4.7 nM	3.24		
COc1cc(Nc2ccnc3ccc(-c4cnn(C)c4)cc23)cc(OC)c1OC [Compound 36, 6–(1-Methyl-1H-pyrazol-4-yl)-N-(3,4,5-trimethoxyphenyl)quinolin-4-amine]	7.2 ± 2.6 nM	3.67		<1%
COc1cc(Nc2ccnc3ccc(-c4cn[nH]c4)cc23)cc(OC)c1OC [Compound 37, 6–(1 h-pyrazol-4-yl)-N-(3,4,5-trimethoxyphenyl)quinolin-4-amine]	14.5 ± 5.6 nM	4.22		
COc1cc(Nc2ccnc3ccc(-c4c[nH]nc4C)cc23)cc(OC)c1OC [Compound 38, 6–(3-Methyl-1H-pyrazol-4-yl)-N-(3,4,5-trimethoxyphenyl)quinolin-4-amine]	19.2 ± 0.7 nM	3.79		
